Blank lines part the entries; values can stand above or below the molecule they belong to. Activity calls are given as the source filed them. The calls are words filed in the database; no cut-off is given here.
Tests used:
Melanocortin receptor 4 [1] = target: T1, Melanocortin receptor 4 (Homo sapiens, UniProt P32245); experiment: biochemical
Description: (§1) Displacement of [125]NDP-MSH from human MC4 receptor expressed in HEK293 cells

Melanocortin receptor 4 [2] = target: T1, Melanocortin receptor 4; conditions: HEK293
Description: as §1

[3] = target: T2, Melanocyte-stimulating hormone receptor (Homo sapiens, UniProt Q01726); experiment: Inhibition of human MC1 receptor expressed in HEK293 cells at 10 uM; type: cell-based
Target sequence in this assay (Q01726 whole entry, looked up): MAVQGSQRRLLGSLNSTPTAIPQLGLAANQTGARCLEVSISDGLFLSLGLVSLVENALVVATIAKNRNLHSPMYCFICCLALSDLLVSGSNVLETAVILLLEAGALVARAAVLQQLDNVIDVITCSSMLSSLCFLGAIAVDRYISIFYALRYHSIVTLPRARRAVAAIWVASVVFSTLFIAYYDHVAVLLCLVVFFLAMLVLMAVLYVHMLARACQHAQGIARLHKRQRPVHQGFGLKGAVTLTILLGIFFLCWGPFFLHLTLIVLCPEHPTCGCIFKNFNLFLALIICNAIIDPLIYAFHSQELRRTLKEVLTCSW

Melanocortin receptor 3 [4] = target: T3, Melanocortin receptor 3 (Homo sapiens, UniProt P41968); experiment: Inhibition of human MC3 receptor expressed in HEK293 cells at 10 uM; type: cell-based
T3 sequence (P41968 whole entry): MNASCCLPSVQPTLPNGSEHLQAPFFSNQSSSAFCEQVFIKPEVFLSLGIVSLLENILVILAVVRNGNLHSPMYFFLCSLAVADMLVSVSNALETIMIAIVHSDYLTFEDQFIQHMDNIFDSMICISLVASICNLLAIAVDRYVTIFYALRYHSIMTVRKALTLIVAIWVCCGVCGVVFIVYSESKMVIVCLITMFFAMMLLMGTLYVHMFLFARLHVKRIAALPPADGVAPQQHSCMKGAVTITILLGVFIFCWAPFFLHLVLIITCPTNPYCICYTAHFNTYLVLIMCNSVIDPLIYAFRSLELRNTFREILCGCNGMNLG

Melanocortin receptor 4 [5] = target: T1, Melanocortin receptor 4
Description: Agonist activity at human MC4 receptor expressed in HEK293 cells assessed as stimulation of cAMP production

Melanocortin receptor 4 [6] = target: T1, Melanocortin receptor 4; experiment: Antagonist activity at human MC4 receptor expressed in HEK293 cells assessed as inhibition of alpha-MSH-stimulated cAMP production; type: functional, cell-based; conditions: read-out: pA2 (converted)
[7] = target: T2, Melanocyte-stimulating hormone receptor; type: cell-based, HEK293
Target sequence in this assay (Q01726 whole entry): as the sequence (Q01726 whole entry, looked up) above

Melanocortin receptor 3 [8] = target: T3, Melanocortin receptor 3; type: cell-based, HEK293
Melanocortin receptor 5 = Melanocortin receptor 5 (Homo sapiens, UniProt P33032); type: cell-based, HEK293
Chain of Melanocortin receptor 5 (P33032 whole entry): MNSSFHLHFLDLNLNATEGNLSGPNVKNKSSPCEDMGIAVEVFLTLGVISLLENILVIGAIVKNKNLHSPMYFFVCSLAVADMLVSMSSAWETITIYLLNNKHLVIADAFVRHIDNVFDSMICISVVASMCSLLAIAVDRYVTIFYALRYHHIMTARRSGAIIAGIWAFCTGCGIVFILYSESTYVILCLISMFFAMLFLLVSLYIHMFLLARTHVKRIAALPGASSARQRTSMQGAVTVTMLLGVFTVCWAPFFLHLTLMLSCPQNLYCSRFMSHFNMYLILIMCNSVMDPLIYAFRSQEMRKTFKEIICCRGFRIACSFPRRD

[9] = Distribution coefficient, log D at pH 7.4; type: physicochemical; conditions: octanol/water
[10] = Clearance in rat at 10 mg/kg, iv; type: ADME, organism-based; parameters: dose 10 mg/kg, route intravenous; conditions: in vivo
[11] = Volume of distribution in rat at 10 mg/kg, iv; type: ADME, organism-based; parameters: dose 10 mg/kg, route intravenous; conditions: in vivo, read-out: Vdss
[12] = Half life in rat at 10 mg/kg, iv; type: ADME, organism-based; parameters: dose 10 mg/kg, route intravenous; conditions: in vivo
[13] = Concentration in rat brain at 2 mg/kg, iv after […]; type: ADME, organism-based; parameters: dose 2 mg/kg, route intravenous; conditions: read-out: Drug uptake
[14] = Plasma concentration in rat at 2 mg/kg, iv after […]; type: ADME, organism-based; parameters: dose 2 mg/kg, route intravenous
[15] = Ratio of drug level in brain to plasma of rat at 2 mg/kg, iv after […]; type: ADME, organism-based; parameters: dose 2 mg/kg, route intravenous
[16] = Tmax in rat at 10 mg/kg, po; type: ADME, organism-based; parameters: dose 10 mg/kg, route oral; conditions: in vivo
[17] = Cmax in rat at 10 mg/kg, po; type: ADME, organism-based; parameters: dose 10 mg/kg, route oral; conditions: in vivo
[18] = AUC in rat at 10 mg/kg, po; type: ADME, organism-based; parameters: dose 10 mg/kg, route oral; conditions: plasma
[19] = Intrinsic clearance in human liver microsomes; type: ADME, Microsome
[20] = Oral bioavailability in rat at 10 mg/kg, po; type: ADME, organism-based; conditions: in vivo
Melanocortin receptor 4 [21] = target: T1, Melanocortin receptor 4; remark: listed apart in the source
Description: as §1

T1 sequence (P32245 whole entry): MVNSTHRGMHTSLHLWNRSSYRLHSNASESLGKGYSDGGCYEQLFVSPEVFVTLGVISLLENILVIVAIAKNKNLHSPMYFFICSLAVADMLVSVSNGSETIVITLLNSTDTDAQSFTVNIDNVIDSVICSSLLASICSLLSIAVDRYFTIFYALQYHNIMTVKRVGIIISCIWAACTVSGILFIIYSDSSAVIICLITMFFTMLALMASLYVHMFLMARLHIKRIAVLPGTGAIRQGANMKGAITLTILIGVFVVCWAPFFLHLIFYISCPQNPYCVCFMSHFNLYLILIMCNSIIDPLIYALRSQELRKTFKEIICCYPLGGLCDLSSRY

SMILES: Cn1nnc(CC2(C3CCCCC3)CCN(C(=O)[C@@H](Cc3ccc(Cl)cc3)NC(=O)[C@H]3Cc4ccccc4CN3)CC2)n1
- Ki (Melanocortin receptor 4 [1]): 1.2 nM (antagonist)

SMILES: CS(=O)(=O)N1CC2(CCN(C(=O)[C@@H](Cc3ccccc3)NC(=O)[C@@H](N)Cc3c[nH]cn3)CC2)c2ccccc21
- Activity (Melanocortin receptor 4 [2]): inactive

SMILES: NCCC(=O)N[C@H](Cc1ccc(Cl)cc1Cl)C(=O)N1CCN(c2ccccc2CNCCc2cccs2)CC1
- Kb (Melanocortin receptor 4 [6]): 12.6 nM (antagonist)
- Ki [7]: 4200 nM (antagonist)
- Ki (Melanocortin receptor 3 [8]): 640 nM (antagonist)
- Ki (Melanocortin receptor 5): 280 nM (antagonist)
- logD [9]: 1.1
- clearance [10]: 24 mL/min/kg
- Vd [11]: 9.5 L/kg
- half-life [12]: 4.6 h
- concentration at […] [13]: 75 ng/g
- concentration at […] [14]: 71 ng/mL
- Kp at […] [15]: 1
- Tmax [16]: 0.5 h
- Cmax [17]: 18 ng/mL
- AUC [18]: 51 ng·h/mL
- CLint scaled [19]: 23 mL/min/kg
- bioavailability [20]: 1%
- Ki (Melanocortin receptor 4 [21]): 1.8 nM (antagonist)

The remaining lines, values ahead:

- inhibition [3]: 27%
- inhibition (Melanocortin receptor 3 [4]): 34%
- EC50 (Melanocortin receptor 4 [5]): 890 nM (agonist)
SMILES: NCc1ccccc1N1CCN(C(=O)[C@@H](Cc2ccc(Cl)cc2)NC(=O)[C@H]2Cc3ccccc3CN2)CC1

- EC50 (Melanocortin receptor 4 [5]): 580 nM (agonist)
SMILES: NCC(=O)N[C@H](Cc1ccc(Cl)cc1)C(=O)N1CCN(c2ccccc2CNCCc2cccs2)CC1

- Ki (Melanocortin receptor 3 [8]): 1400 nM (antagonist)
SMILES: NCCC(=O)N[C@H](Cc1ccc(Cl)cc1)C(=O)N1CCN(c2ccccc2CNCCc2cccs2)CC1
